Measured values taken from US8557847B2, “Synergistic modulation of FLT3 kinase using a FLT3 inhibitor and a farnesyl transferase inhibitor” (Janssen Pharmaceutica, N.V., priority 2005, dated 2013).
Where a name gives a salt, the structure may show the parent alone. Read-outs that look alike come from different tables or passages of the source.

Key:
[1] = system: Baf3-FLT3 cells stimulated with FLT ligand; assay: 72-hour cell proliferation assay, single agents and FTI/FLT3 inhibitor combinations, Baf3-FLT3; format: cell-based, murine; conditions: with single sub-IC50 dose of FLT3 inhibitor Compound A (100 nM)
Experimental: (§1) Dose responses for the individual compounds alone were determined for each cell line using a standard 72-hour cell proliferation assay (see FIGS. 6.1-6.8). The standard chemotherapeutic agent Cytarabine was used as a control cytotoxic agent in all experiments. […] The FLT3 inhibitors, Compounds A, B, C, D, E, F G and H, individually have good potency (sub-micromolar) for the inhibition of FLT3 driven proliferation (compared to the first line cytotoxic agent Cytarabine and Tipifarnib) in cells that depend on FLT3 for growth. Each of these chemically distinct compounds alone has potential for the treatment of disorders related to FLT3, such as FLT3 positive AML. […]
(§2) To statistically evaluate the synergy of a FLT3 inhibitor and an FTI in FLT3 dependent cell lines, dosing combinations were evaluated by the method of Chou and Talalay. See Chou T C, Talalay P. (1984) “Quantitative analysis of dose-effect relationships: the combined effects of multiple drugs or enzyme inhibitors.” Adv Enzyme Regul. […] Using this method, multiple FTI and FLT3 combinations were evaluated. […]
(§3) Cell proliferation assay for MV4-11, Baf3-ITD, Baf3-FLT3 and THP-1 cells. […] Total cell growth is quantified as the difference in luminescent counts (relative light units, RLU) of cell number at Day 0 compared to total cell number at Day 3 (72 hours of growth and/or compound treatment). […]

[2] = biological target: T1, isolated kinase domain of the human FLT3 receptor (a.a. 571-993) (Homo sapiens, UniProt P36888); assay: FLT3 fluorescence polarization kinase assay; format: biochemical; conditions: 150 uM ATP; uncertainty ±10%; read-out: Flt-3 IC50
T1 construct: human FLT3 receptor (a.a. 571-993)
T1 sequence (P36888 571-993): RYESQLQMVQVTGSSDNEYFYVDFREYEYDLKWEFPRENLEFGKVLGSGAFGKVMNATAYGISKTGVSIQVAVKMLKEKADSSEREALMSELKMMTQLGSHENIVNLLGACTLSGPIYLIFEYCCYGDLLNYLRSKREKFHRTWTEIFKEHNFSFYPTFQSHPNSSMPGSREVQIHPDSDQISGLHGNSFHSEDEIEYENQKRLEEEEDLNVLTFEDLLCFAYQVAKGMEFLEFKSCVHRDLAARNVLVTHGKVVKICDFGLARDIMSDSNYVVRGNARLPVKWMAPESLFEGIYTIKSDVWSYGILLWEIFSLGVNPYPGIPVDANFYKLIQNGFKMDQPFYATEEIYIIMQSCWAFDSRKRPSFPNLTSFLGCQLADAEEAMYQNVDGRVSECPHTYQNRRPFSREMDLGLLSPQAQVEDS
From the text: The FLT3 FP assay utilizes the fluorescein-labeled phosphopeptide and the anti-phosphotyrosine antibody included in the Panvera Phospho-Tyrosine Kinase Kit (Green) supplied by Invitrogen. When FLT3 phosphorylates polyGlu4Tyr, the fluorescein-labeled phosphopeptide is displaced from the anti-phosphotyrosine antibody by the phosphorylated poly Glu4Tyr, thus decreasing the FP value. […] The kinase reaction is stopped with the addition of EDTA. The fluorescein-labeled phosphopeptide and the anti-phosphotyrosine antibody are added and incubated for 30 minutes at room temperature.
Data points are an average of triplicate samples. Inhibition and IC50 data analysis was done with GraphPad Prism using a non-linear regression fit with a multiparamater, sigmoidal dose-response (variable slope) equation.

[3] = biological target: T2, wild-type FLT3 phosphorylation in Baf3 FLT3 cells (Homo sapiens, UniProt P36888); assay: Cell-based FLT3 receptor ELISA; conditions: uncertainty ±20%
T2 construct: host or cells: Baf3 (murine B cell lymphoma line)
T2 sequence (P36888 27-993): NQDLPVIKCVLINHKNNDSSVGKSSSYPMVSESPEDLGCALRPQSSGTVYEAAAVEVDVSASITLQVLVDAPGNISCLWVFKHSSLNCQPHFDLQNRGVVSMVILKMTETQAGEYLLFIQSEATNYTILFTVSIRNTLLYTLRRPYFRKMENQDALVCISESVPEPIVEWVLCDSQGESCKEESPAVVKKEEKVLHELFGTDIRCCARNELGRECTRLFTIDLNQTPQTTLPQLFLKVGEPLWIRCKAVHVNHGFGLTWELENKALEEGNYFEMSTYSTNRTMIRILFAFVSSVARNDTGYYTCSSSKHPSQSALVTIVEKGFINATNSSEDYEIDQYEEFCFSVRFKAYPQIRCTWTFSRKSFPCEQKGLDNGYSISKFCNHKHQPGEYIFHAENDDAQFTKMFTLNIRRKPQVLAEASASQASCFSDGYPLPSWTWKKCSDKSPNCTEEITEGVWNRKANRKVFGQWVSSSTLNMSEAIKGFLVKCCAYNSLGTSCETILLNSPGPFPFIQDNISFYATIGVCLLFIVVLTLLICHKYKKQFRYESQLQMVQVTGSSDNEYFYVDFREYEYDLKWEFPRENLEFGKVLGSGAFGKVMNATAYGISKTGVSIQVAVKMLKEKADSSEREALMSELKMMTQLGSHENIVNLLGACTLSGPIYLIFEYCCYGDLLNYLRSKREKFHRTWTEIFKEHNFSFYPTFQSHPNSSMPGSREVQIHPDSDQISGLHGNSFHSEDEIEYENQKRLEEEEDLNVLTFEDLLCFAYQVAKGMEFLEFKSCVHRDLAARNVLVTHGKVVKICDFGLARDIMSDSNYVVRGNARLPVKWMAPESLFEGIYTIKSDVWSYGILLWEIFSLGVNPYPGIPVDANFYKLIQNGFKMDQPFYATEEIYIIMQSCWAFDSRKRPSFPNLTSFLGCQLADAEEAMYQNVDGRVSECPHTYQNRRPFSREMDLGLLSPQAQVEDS
From the text: Data points are an average of triplicate samples. […] Leukemia.

[4] = biological target: T3, FLT3 phosphorylation in MV4-11 tumors (Homo sapiens, UniProt P36888, INS600HVDFREYEYD); assay: FLT3 phosphorylation in MV4-11 tumors, Compound D; format: in vivo, nude mice; conditions: tumors harvested 6 hours later
T3 construct: host or cells: MV4-11 human AML cells (in culture, or as xenograft tumors in nude mice)
T3 sequence (P36888 with tags, fused parts or gaps INS600HVDFREYEYD): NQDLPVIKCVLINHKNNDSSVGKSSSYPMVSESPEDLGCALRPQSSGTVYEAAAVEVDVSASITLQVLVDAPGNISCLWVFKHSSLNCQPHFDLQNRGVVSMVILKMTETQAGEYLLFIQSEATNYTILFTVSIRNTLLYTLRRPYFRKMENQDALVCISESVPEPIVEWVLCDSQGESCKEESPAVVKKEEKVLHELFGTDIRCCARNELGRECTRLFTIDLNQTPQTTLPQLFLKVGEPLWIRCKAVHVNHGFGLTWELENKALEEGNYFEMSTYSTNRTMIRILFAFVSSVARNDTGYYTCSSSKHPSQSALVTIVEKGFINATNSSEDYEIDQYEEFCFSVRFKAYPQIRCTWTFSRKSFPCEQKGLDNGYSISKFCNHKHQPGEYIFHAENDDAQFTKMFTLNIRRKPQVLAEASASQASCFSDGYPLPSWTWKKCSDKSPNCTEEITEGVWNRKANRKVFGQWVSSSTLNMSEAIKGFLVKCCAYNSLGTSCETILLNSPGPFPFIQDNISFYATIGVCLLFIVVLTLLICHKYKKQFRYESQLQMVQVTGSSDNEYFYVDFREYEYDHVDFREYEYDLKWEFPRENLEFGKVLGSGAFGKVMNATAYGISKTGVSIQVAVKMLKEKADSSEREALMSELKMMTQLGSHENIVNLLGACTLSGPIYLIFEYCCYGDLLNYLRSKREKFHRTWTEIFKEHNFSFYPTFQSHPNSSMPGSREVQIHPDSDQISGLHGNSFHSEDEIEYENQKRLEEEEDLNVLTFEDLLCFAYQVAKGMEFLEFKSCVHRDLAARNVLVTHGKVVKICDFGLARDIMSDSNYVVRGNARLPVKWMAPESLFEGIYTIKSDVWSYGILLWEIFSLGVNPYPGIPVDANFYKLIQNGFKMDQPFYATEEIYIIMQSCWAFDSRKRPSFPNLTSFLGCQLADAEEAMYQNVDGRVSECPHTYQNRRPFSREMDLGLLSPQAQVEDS
Experimental: Tumors were harvested 6 hours later and snap frozen for assessment of FLT3 phosphorylation by western blots.
Harvested tumors were frozen and processed for immunoblot analysis of FLT3 phosphorylation in the following manner: 200 mg of tumor tissue was dounce homogenized in lysis buffer (50 mM Hepes, 150 mM NaCl, 10% Glycerol, 1% Triton —X-100, 10 mM NaF, 1 mM EDTA, 1.5 mM MgCl2, 10 mM NaPyrophosphate) supplemented with phosphatase (Sigma Cat# P2850) and protease inhibitors (Sigma Cat #P8340). Insoluble debris was removed by centrifugation at 1000×g for 5 minutes at 4° C.
Immunoprecipitated FLT3 from tumor lysates were then washed four times with lysis buffer and separated by SDS-PAGE. […] Blots were then stripped and reprobed with anti-FLT3 antibody for normalization of phosphorylation signals.

MV4-11 AML cells = assay: 72-hour cell proliferation assay, single agents and FTI/FLT3 inhibitor combinations, MV4-11; format: cell-based; conditions: Homo sapiens, IC50 of the FLT3 inhibitor, alone or within the labelled combination, average of three experiments
Experimental: as §1, §2, §3

MV-4-11 tumor xenografts = assay: MV-4-11 tumor xenografts, FLT3 inhibitor Compound D administered with Tipifarnib; format: in vivo, nude mice; conditions: Compound D 25 mg/kg bid oral, Day 16
From the text: The starting mean tumor volume for each treatment group was approximately 250 mm3.
Dosing was continued for sixteen consecutive days.

MV4-11 tumor xenografts = conditions: for inhibition of mean tumor volume compared to vehicle-treated group: Day 11

**Q.** Cn1cncc1[C@@](N)(c1ccc(Cl)cc1)c1ccc2c(c1)c(-c1cccc(Cl)c1)cc(=O)n2C (single isomer, unassigned) [Tipifarnib, reference compound] was tested. Which “increase in potency of Tipifarnib” value [1] did it give?
**A.** The value was “more than 3 fold”.

**Q.** Which IC50 [2] does the source give for N#Cc1c[nH]c(C(=O)Nc2ccc(C3CCNCC3)cc2C2=CCCCC2)n1 [Compound 14, 4-Cyano-1H-imidazole-2-carboxylic acid (2-cyclohex-1-enyl-4-piperidin-4-yl-phenyl)-amide trifluoroacetic acid salt] here?
**A.** The IC50 was 32 nM.

**Q.** What about the IC50 [3] of the same molecule?
**A.** Its IC50 is 770 nM.

**Q.** For CN(C)CC(=O)N1CCC(c2ccc(NC(=O)c3nc(C#N)c[nH]3)c(C3=CCCCC3)c2)CC1 [Compound 38, 4-Cyano-1H-imidazole-2-carboxylic acid {2-cyclohex-1-enyl-4-[1-(2-dimethylamino-acetyl)-piperidin-4-yl]-phenyl}-amide], which “level of FLT3 phosphorylation in MV4-11 tumors” value ([4]; single dose 10 mg/kg po) is on record?
**A.** Its value is “partial reduction”.

**Q.** What about the “level of FLT3 phosphorylation in MV4-11 tumors” value ([4]; single dose 100 mg/kg po) of the same molecule?
**A.** Its value is “biologically significant reduction”.

**Q.** What about the IC50 (MV4-11 AML cells) of the same molecule?
**A.** The IC50 was 13.8 nM.

**Q.** And the “inhibition of tumor volume compared to vehicle-treated control group” value (MV-4-11 tumor xenografts)?
**A.** The value was 76%.

**Q.** What about the “tumor growth compared to vehicle-treated control group” value (MV4-11 tumor xenografts; 10 mg/kg b.i.d. oral) of the same molecule?
**A.** The value was “no significant growth delay”.

**Q.** What about the final tumor weight (MV4-11 tumor xenografts; 10 mg/kg dose) of the same molecule?
**A.** Its final tumor weight is “no significant decrease”.

**Q.** What about the “tumor regression, decrease versus starting mean tumor volume on Day 1” value (MV4-11 tumor xenografts; 50 mg/kg b.i.d. oral) of the same molecule?
**A.** Its value is 98%.

**Q.** And the “inhibition of mean tumor volume compared to vehicle-treated group” value (MV4-11 tumor xenografts; 50 mg/kg b.i.d. oral)?
**A.** Its value is roughly 100%.

**Q.** What about the final tumor weight (MV4-11 tumor xenografts; 50 mg/kg dose) of the same molecule?
**A.** The final tumor weight was “no measurable tumor mass detectable”.

**Q.** What about the “tumor regression, decrease versus starting mean tumor volume on Day 1” value (MV4-11 tumor xenografts; 100 mg/kg b.i.d. oral) of the same molecule?
**A.** Its value is 93%.

**Q.** What about the “inhibition of mean tumor volume compared to vehicle-treated group” value (MV4-11 tumor xenografts; 100 mg/kg b.i.d. oral) of the same molecule?
**A.** Its value is roughly 100%.

**Q.** What about the “mice with palpable, measurable tumor on study day 34” value (MV4-11 tumor xenografts; 100 mg/kg, dosing stopped on Day 12, tumor allowed to re-grow) of the same molecule?
**A.** The value was 6/12.

**Q.** What about the “body weight compared to starting body weight” value (MV4-11 tumor xenografts; across all dose groups) of the same molecule?
**A.** Its value is “no significant loss of body weight”.
